Data on four compounds can be found in US6107317A, “N-(substituted glycyl)-thiazolidines, pharmaceutical compositions containing them and their use in inhibiting dipeptidyl peptidase-IV” (Novartis AG, priority 1999, dated 2000).

One series deals with T1, DPP-IV (Homo sapiens, UniProt P27487).
T1 construct: host or cells: Caco-2, differentiated to induce DPP-IV expression; cell extract solubilized in 0.5% nonidet-P40
Put plainly: Caco-2 DPP-IV Assay (inhibition of DPP-IV activity from human colonic carcinoma cell extracts). To be noted: solubilized Caco-2 protein 20 μg; substrate H-Alanine-Proline-pNA; pH 7.4; room temperature, 10 minutes. The series is classed as biochemical. The protocol:
The human colonic carcinoma cell line Caco-2 was obtained from the American Type Culture Collection (ATCC HTB 37). Differentiation of the cells to induce DPP-IV expression was accomplished as described by Reisher, et al. in an article entitled "Increased expression of . . . intestinal cell line Caco-2" in Proc. Natl. Acad. Sci., Vol. 90, pgs. […] Cell extract is prepared from cells solubilized in 10 mM Tris-HCl, 0.15 M NaCl, 0.04 t.i.u. aprotinin, 0.5% nonidet-P40, pH 8.0, which is centrifuged at 35,000 g for 30 min. at 4° C. to remove cell debris. The assay is conducted by adding 20 μg solubilized Caco-2 protein, diluted to a final volume of 125 μl in assay buffer (25 mM Tris-HCl pH 7.4, 140 mM NaCl, 10 mM KCl, 1% bovine serum albumin) to microtiter plate wells. The reaction is initiated by adding 25μl of 1 mM substrate (H-Alanine-Proline-pNA; pNA is p-nitroaniline). The reaction is run at room temperature for 10 minutes after which time a 19 μl volume of 25% glacial acetic acid is added to stop the reaction. […] A standard curve of free p-nitroaniline is generated using 0-500 μM solutions of free pNA in assay buffer. The curve generated is linear and is used for interpolation of substrate consumption (catalytic activity in nmoles substrate cleaved/min). […] The potency of the test compounds as DPP-IV inhibitors, expressed as IC50, is calculated from 8-point, dose-response curves using a 4-parameter logistic function.

The target in another series is T2, rat plasma DPP-IV (Rattus norvegicus, UniProt P14740).
T2 construct: DPP-IV activity in human and rat plasma; from tissue; host or cells: rat plasma
T2 sequence (P14740 37-767 limits assumed): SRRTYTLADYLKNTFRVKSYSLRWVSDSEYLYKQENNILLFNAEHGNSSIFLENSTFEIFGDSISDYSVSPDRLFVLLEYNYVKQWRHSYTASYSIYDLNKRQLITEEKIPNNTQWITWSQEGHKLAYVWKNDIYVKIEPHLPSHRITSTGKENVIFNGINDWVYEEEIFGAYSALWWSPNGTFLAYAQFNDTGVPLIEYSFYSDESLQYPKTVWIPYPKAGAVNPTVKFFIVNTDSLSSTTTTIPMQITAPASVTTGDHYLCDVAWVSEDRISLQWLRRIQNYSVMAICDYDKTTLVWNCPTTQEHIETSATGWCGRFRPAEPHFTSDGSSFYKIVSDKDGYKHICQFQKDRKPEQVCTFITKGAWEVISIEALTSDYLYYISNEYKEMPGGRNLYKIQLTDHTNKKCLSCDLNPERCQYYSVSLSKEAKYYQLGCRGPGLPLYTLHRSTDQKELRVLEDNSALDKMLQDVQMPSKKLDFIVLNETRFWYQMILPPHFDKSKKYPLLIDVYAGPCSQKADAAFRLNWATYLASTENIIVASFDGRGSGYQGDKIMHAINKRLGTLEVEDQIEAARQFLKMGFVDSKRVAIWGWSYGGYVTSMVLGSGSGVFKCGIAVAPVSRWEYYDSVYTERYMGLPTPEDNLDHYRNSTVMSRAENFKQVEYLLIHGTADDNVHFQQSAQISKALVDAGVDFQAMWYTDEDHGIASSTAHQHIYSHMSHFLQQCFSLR
In words: DPP-IV activity in rat plasma. The series is classed as biochemical. To be noted: substrate H-Glycine-Proline-AMC, pH 7.8, room temperature, 20 min. Here is the method:
(§1) Briefly, five μl of plasma are added to 96-well flat-bottom mictotiter plates (Falcon), followed by the addition of 5 μl of 80 mM MgCl2 in incubation buffer (25 mM HEPES, 140 mM NaCl, 1% RIA-grade BSA, pH 7.8). After a 5 min. incubation at room temperature, the reaction is initiated by the addition of 10 μl of incubation buffer containing 0.1 mM substrate (H-Glycine-Proline-AMC; AMC is 7-amino-4-methylcoumarin). The plates are covered with aluminum foil (or kept in the dark) and incubated at room temperature for 20 min. […] A fluorescence-concentration curve of free AMC is generated using 0-50 μM solutions of AMC in assay buffer. The curve generated is linear and is used for interpolation of substrate consumption (catalytic activity in nmoles substrate cleaved/min). As with the previous assay, the potency of the test compounds as DPP-IV inhibitors, expressed as IC50, is calculated from 8-point, dose-response curves using a 4 parameter logistic function.

The target in the next series is T3, human plasma DPP-IV (Homo sapiens, UniProt P27487).
T3 construct: DPP-IV activity in human and rat plasma; from tissue; host or cells: human plasma
T3 sequence (P27487 39-766 limits assumed): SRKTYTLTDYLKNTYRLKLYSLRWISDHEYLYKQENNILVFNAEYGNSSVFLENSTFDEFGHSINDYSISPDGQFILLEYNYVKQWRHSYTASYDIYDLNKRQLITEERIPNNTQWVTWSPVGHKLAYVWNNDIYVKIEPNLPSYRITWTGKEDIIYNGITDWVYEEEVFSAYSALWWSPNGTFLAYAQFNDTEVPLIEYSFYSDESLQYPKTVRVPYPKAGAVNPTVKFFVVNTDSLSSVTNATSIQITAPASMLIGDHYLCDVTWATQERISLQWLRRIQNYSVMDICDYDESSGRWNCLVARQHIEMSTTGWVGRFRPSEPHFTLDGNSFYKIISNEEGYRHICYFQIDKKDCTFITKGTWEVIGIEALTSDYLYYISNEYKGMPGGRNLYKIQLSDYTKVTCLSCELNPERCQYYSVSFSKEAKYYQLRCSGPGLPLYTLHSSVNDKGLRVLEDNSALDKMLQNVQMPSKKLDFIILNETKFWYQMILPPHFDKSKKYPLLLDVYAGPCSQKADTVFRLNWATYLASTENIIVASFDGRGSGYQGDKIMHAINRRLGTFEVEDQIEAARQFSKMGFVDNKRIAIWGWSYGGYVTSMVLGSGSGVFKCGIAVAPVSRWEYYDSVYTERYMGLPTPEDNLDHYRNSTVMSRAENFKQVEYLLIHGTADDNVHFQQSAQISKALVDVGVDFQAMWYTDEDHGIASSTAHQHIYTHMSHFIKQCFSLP
In words: DPP-IV activity in human plasma. The series is classed as biochemical. To be noted: substrate H-Glycine-Proline-AMC, pH 7.8, room temperature, 20 min. Here is the method:
as §1

The conditions of series [1]: diabetic and non-diabetic subjects, Diabetes, Vol. 44, pgs. 1126-1131; cited from earlier work.

Structures can show the parent of a compound that is named as a salt.

T1 sequence (P27487 whole entry): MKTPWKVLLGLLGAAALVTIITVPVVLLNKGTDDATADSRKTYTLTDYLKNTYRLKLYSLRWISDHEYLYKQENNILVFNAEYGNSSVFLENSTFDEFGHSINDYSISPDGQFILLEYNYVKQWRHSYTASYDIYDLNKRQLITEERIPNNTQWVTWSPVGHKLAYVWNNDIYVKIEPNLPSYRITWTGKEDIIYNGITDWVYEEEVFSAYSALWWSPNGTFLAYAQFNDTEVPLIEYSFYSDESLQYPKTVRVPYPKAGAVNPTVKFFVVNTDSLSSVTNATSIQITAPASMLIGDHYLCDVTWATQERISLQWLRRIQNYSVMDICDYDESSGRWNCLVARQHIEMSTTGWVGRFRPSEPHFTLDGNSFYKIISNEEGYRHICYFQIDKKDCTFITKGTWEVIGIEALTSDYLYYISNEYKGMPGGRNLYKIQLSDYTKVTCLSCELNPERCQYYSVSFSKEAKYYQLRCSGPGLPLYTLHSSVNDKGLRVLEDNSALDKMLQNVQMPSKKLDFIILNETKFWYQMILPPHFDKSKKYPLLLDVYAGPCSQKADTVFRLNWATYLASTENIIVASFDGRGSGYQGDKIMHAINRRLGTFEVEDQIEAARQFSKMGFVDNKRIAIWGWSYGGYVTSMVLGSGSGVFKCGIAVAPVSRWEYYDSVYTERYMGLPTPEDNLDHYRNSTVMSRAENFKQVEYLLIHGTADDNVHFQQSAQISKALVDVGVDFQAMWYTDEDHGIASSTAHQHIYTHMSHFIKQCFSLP

A word on the IC50: it is the point on the concentration scale where inhibition reaches its midpoint. A low value points to higher potency. For `O=C(CNCCNc1ccccn1)N1CCSC1` [Ex. 1, 1-[2-[(pyridin-2-yl)amino]ethylamino]acetylthiazolidine dihydrochloride], the IC50 against DPP-IV worked out at 10.3 µM; on rat plasma DPP-IV, 10.5 µM; against human plasma DPP-IV it was 6.8 µM.
For `O=C(CNCCNc1ccc(Cl)cn1)N1CCSC1` [Ex. 4, 1-[2-[(5-chloropyridin-2-yl)amino]ethylamino]acetylthiazolidine], the IC50 was 31.1 µM against DPP-IV, 7.1 µM against rat plasma DPP-IV and 21 µM against human plasma DPP-IV.
As for `O=C(CNC1(CO)CCCC1)N1CCSC1` [Ex. 2, 1-[(1-hydroxymethylcyclopent-1-yl)amino]acetylthiazolidine hydrochloride], the figures for the IC50 against DPP-IV, on rat plasma DPP-IV and on human plasma DPP-IV were 25.3 µM, 3.3 µM and 5.7 µM, respectively.
GLP-I amide: GLP-I amide: the “degradation when administered by subcutaneous or intravenous routes” value in series [1] is “rapidly degraded”.
